Assay type in all cases: cell-based
For data set [1], the system named is normal diploid human fibroblasts (WI 38). The data set is described as follows: Antiproliferation MTT assay. For orientation: Tetrazolium dyes change colour on reduction, which living cells bring about.
The next data set relates to HIV-1. In words: Anti-HIV-1 activity, virus-induced cytopathicity in CEM cells. (Protection from cytopathic effect is a common read-out in antiviral testing.)
In a further data set the test system is HIV-2. In words: Anti-HIV-2 activity, virus-induced cytopathicity in CEM cells.
The subject of another data set is influenza A (H3N2). In words: microbe, parasite or virus in culture. The note with it: H3N2, MDCK, read-out: EC50 against influenza A (H3N2).
Data set [2] has as its system all evaluated tumour cell lines (L1210, Molt4/C8, CEM, HeLa, MCF-7, MiaPaCa-2, SW 620, Hep G2). In words: Cytostatic activity over the whole panel of evaluated cell lines. The note with it: read-out: IC50 range on all the evaluated tumour cell lines.

Data on 5 compounds can be found in PMC7127491 (Bioorganic & Medicinal Chemistry, 2008).

“Also recorded” adds a separate entry of the source.

In the case of `CCCCCc1ccc(C#Cc2cn(C/C=C\CN3C(=O)c4ccccc4C3=O)c(=O)[nH]c2=O)cc1` [Compound 7, (Z)-1-[4′-(N-Phthalimido)-2′-butenyl]-5-(p-pentylphenylethynyl)uracil], the “cytotoxicity to human normal fibroblasts (WI 38), in words” value in data set [1] is reported as “no cytotoxicity”.
On to `O=C1c2ccccc2C(=O)N1C/C=C\Cn1cc(C#Cc2ccc(Br)cc2)c(=O)[nH]c1=O` [Compound 4, (Z)-1-[4′-(N-Phthalimido)-2′-butenyl]-5-(p-bromophenylethynyl)uracil], for which the “inhibitory activity against HIV-1, in words” value in the data set on HIV-1 is recorded as “marginal inhibitory activity; also recorded: slight activity”. For the same compound, in the data set on HIV-2, the “inhibitory activity against HIV-2, in words” value was “marginal inhibitory activity”.
`CCCCCCCCC#Cc1cn(C/C=C\CN2C(=O)c3ccccc3C2=O)c(=O)[nH]c1=O` [Compound 2, (Z)-1-[4′-(N-Phthalimido)-2′-butenyl]-5-decynyluracil]: the EC50 (commonly the concentration that produces a half-maximal response) in the data set with influenza A (H3N2) fell in the range of 2.5 to 4 µM.
For the compound `O=C1c2ccccc2C(=O)N1C/C=C\Cn1cc(C#CCCc2ccccc2)c(=O)[nH]c1=O` [Compound 3, (Z)-1-[4′-(N-Phthalimido)-2′-butenyl]-5-(4″-phenylbutynyl)uracil], the “inhibitory activity against HIV-1, in words” value in the data set with HIV-1 is given as “marginal inhibitory activity; also recorded: slight activity”. Further, in the data set on HIV-2, the “inhibitory activity against HIV-2, in words” value is on record as “marginal inhibitory activity”.
As to `CCCCCc1ccc(C#Cc2cn(C/C=C/CN3C(=O)c4ccccc4C3=O)c(=O)[nH]c2=O)cc1` [Compound 14, (E)-1-[4′-(N-Phthalimido)-2′-butenyl]-5-(p-pentylphenylethynyl)uracil], the “cytotoxicity to human normal fibroblasts (WI 38), in words” value in data set [1] is given as “cytotoxic”. Besides, the “inhibitory activity against HIV-1, in words” value with HIV-1 is “marginal inhibitory activity; also recorded: moderate activity”. Further, the “inhibitory activity against HIV-2, in words” value in the data set with HIV-2 is “marginal inhibitory activity; also recorded: moderate activity”. Besides, in data set [2], the IC50 (in general, the concentration that gives 50% inhibition) lay in the range of 4.3 to 39 µM.
